{
  "source": "patent US7371414B2",
  "about": "“Therapeutic and diagnostic methods dependent on CYP2A enzymes” (Nicogen, Inc., priority 1997, dated 2008)",
  "key": {"CYP2A6 [1]": {"molecular_target": "T1, CYP2A6 (Homo sapiens, UniProt P11509)", "T1 sequence (P11509 1-494)": "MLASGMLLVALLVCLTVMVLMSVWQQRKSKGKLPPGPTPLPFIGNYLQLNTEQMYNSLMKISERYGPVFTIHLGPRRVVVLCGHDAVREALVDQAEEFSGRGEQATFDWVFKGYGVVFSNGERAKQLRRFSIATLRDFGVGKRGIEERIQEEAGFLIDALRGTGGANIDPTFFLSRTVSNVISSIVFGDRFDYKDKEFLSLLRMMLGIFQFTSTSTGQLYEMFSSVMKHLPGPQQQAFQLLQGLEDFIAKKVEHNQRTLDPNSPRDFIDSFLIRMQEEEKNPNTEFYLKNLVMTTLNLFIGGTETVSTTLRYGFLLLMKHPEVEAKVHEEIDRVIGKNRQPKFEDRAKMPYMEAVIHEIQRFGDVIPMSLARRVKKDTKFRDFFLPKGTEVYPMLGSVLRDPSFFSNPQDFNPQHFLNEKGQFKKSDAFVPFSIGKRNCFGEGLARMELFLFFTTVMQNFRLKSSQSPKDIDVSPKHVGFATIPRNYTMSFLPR", "assay": "In vitro inhibition of nicotine metabolism in expressed CYP2A6"}, "CYP2A6 [2]": {"molecular_target": "T1, CYP2A6", "settings": "nicotine 4.0 mg p.o.; for increase in plasma nicotine: p<0.01"}, "CYP2A6 [3]": {"molecular_target": "T1, CYP2A6", "assay": "Inhibition of nicotine metabolism to cotinine in test livers", "assay_type": "biochemical", "design": "from tissue; host or cells: human smokers in vivo (hepatic CYP2A6)"}, "CYP2A6 [4]": {"molecular_target": "T1, CYP2A6", "assay": "Effect of esculetin on nicotine metabolism by human liver microsomes", "assay_type": "biochemical", "design": "from tissue; host or cells: human smokers in vivo (hepatic CYP2A6)", "settings": "FIG. 19", "procedure": "Nicotine metabolism was monitored in vitro. Inhibitor assessment was carried out by comparing the assay including 50 μl tris buffer with the extracts prepared in Example 11 (50 μl, diluted in tris buffer). Human liver microsomes or CYP2A6 microsomes were used. The concentration of inhibitor in Hypericum was calculated on the basis of an apparent molecular weight of the inhibitor of 504 and a concentration of 0.3% active material in the plant material when diluting to yield concentrations of […] μM.\n• Substrate 80 μM (50 μl tris buffer) • NADPH1 mM (50 μl tris buffer) • Microsomes 80 μg (30 μl tris buffer) • Cytosol (rat) 20 μl (tris buffer) • Tris buffer 50 μl (pH7.4) • Final volume […] Incubation Procedure:\nThe incubation was carried out at 37° C. for 30 min. An internal standard (50 μl, caffeine, 0.05 mg/ml) was added to the incubation mixture, followed by DCM (1 ml). The mixture was shaken for 10 min and centrifuged for 5 min at 3,000 g. The top layer was aspirated. HC1 (0.01 N, 100 μl) was added, followed by shaking for 1 min, then centrifuge for 5 min at 3,000 g. 30 μl of the HCl layer was injected for HPLC. […]"}, "CYP2A6 [5]": {"molecular_target": "T1, CYP2A6", "assay": "Effect of methoxsalen on nicotine metabolism in tobacco dependent smokers (Example 6)", "assay_type": "in vivo", "design": "from tissue; host or cells: human smokers in vivo (hepatic CYP2A6)", "settings": "methoxsalen 10 mg t.i.d. p.o.", "procedure": "Subjects were recruited only if they smoked at least 15 cigarette per day, and were required to smoke the same number of cigarettes each day, on all four study days. During assessment, blood was taken to be analyzed for plasma nicotine and cotinine levels, as well as for CYP2A6 genotyping. Breath carbon monoxide was also measured.\nDuring each study day a smoking log was completed. This log asked subjects to document the number of cigarette smoked from 8:00 a.m. to […]., and 10:00 p.m. to 8:00 a.m. Study days 1 and 2 could be separated, but days 2, 3 and 4 were required to be consecutive.\nOn both study days 1 (placebo) and 4 (treatment), a 24 h urine collection was initiated on waking. At 2:00 p.m. blood was drawn for nicotine and cotinine analysis and breath carbon monoxide was measured. […] Urine samples can be analyzed for 24 h NNAL, NNAL glucuronide, creatinine and cotinine."}, "[6]": {"settings": "cited from earlier work"}, "CYP2A6 [7]": {"system": "CYP2A6", "assay": "In vivo phenotype assay: plasma kinetics of nicotine and coumarin after oral administration by CYP2A6 genotype", "settings": "both, human, 4 mg, plasma nicotine, 90 min after nicotine 4.0 mg oral", "procedure": "The plasma kinetics of nicotine and coumarin were compared after oral administration in 10 smokers and 9 non-smokers (12 males, 7 females) of known CYP2A6 genotype. The dose of nicotine was 4.0 mg (expressed as base) and the dose of coumarin was 50 mg. The plasma concentration of nicotine, cotinine, coumarin and 7-OH-coumarin were measured as described above."}},
  "note": "Where two headings read alike, the source gives them in different places.",
  "data": [
    {"molecule": "N[C@@H]1C[C@H]1c1ccccc1", "note": "(racemic) [tranylcypromine]", "values": [
      {"measurement": "inhibition of CYP2A6 (in words)", "setting": "CYP2A6 [1]", "result": "potent inhibitors of CYP2A6"},
      {"measurement": "desire to smoke", "setting": "CYP2A6 [2]; inhibitor dose 2.5 mg (T2.5), p=0.17", "result": "significant (p<0.05) decrease"},
      {"measurement": "increase in plasma nicotine", "setting": "CYP2A6 [2]; inhibitor dose 2.5 mg", "result": "~100", "unit": "%"},
      {"measurement": "increase in plasma nicotine", "setting": "CYP2A6 [2]; inhibitor dose 10 mg", "result": "~100", "unit": "%"},
      {"measurement": "plasma nicotine compared to placebo (in words)", "setting": "CYP2A6 [2]; methoxsalen 3 mg, 10 mg or 30 mg, tranylcypromine 2.5 mg or 10 mg", "result": "significantly increased"}
    ]},
    {"molecule": "O=c1ccc2ccccc2o1", "note": "[coumarin]", "values": [
      {"measurement": "inhibition of nicotine metabolism to cotinine", "setting": "CYP2A6 [3]", "result": "84%±11%"}
    ]},
    {"molecule": "O=c1ccc2cc(O)c(O)cc2o1", "note": "[esculetin]", "values": [
      {"measurement": "inhibition of nicotine metabolism by CYP2A6 (in words)", "setting": "CYP2A6 [4]", "result": "potent inhibitor of CYP2A6"}
    ]},
    {"molecule": "COc1c2occc2cc2ccc(=O)oc12", "note": "[methoxsalen]", "values": [
      {"measurement": "desire to smoke", "setting": "CYP2A6 [2]; inhibitor dose 10 mg (M10)", "result": "significant (p<0.05) decrease"},
      {"measurement": "desire to smoke", "setting": "CYP2A6 [2]; inhibitor dose 30 mg (M30)", "result": "significant (p<0.05) decrease"},
      {"measurement": "decrease in breath CO", "setting": "CYP2A6 [5]; day 4 vs placebo day", "result": 11, "unit": "%"},
      {"measurement": "increase in plasma nicotine", "setting": "CYP2A6 [5]; day 4 vs placebo day", "result": 17, "unit": "%"},
      {"measurement": "breath CO", "setting": "CYP2A6 [5]; treatment day 4", "result": 20.5, "unit": "ppm"},
      {"measurement": "plasma nicotine", "setting": "CYP2A6 [5]; treatment day 4", "result": 27, "unit": "ng/mL"}
    ]},
    {"molecule": "CN1CCCC1c1cccnc1", "note": "(stereo not drawn) [nicotine]", "values": [
      {"measurement": "share of nicotine metabolized to the inactive metabolite cotinine", "setting": "[6]; in humans", "result": "60-85%"},
      {"measurement": "share of nicotine metabolized by CYP2A6 in vivo", "setting": "[6]; in vivo", "result": "approximately 75%"},
      {"measurement": "share of oral nicotine metabolized to cotinine by the liver", "setting": "[6]; oral, first pass", "result": "60-85%"},
      {"measurement": "nicotine bioavailability", "setting": "[6]; oral", "result": "20-35%"},
      {"measurement": "share of oral nicotine that reaches the systemic circulation", "setting": "[6]; oral", "result": "15-40%"},
      {"measurement": "concentration at 90 min", "setting": "CYP2A6 [7]; genotype *1/*1", "result": "24 ± 15", "unit": "nM"},
      {"measurement": "concentration at 90 min", "setting": "CYP2A6 [7]; genotype *1/*2 or *1/*3", "result": "29 ± 12", "unit": "nM"},
      {"measurement": "concentration at 90 min", "setting": "CYP2A6 [7]; genotype *2/*2", "result": "52 ± 3", "unit": "nM"}
    ]}
  ]
}
